Results from patent US9278958B2, “Anti-cancer compounds” (KATHOLIEKE UNIVERSITEIT LEUVEN, priority 2012, dated 2016).
Where two headings read alike, the source gives them in different places.

Key:
[1] = system: U937, human monocytic cells; assay: Cytostatic assay, U937; format: cell-based; settings: U-937, Table 2
Experimental: (§1) To each well of a 96-well microtiter plate were added 5-7.5×10^4 cells and a given amount of the test compound. The cells were allowed to proliferate for 48 h to 96 h (depending on the nature of the cell line) at 37° C. in a humidified CO2-controlled atmosphere. At the end of the incubation period, the cells were counted in a Coulter Counter (Coulter Electronics Ltd, Harpenden Herts, United Kingdom).

CEM cells = assay: Cytostatic assay, CEM; format: cell-based; settings: Homo sapiens, CCRF-CEM
Experimental: as §1

[2] = system: LNCaP (UZ) prostate cancer cells; assay: Cytostatic assay, LNCaP (UZ); format: cell-based; settings: Homo sapiens, Table 4
Experimental: as §1

[3] = system: OST TK- osteosarcoma cells; assay: Cytostatic assay, OST TK-; format: cell-based; settings: Homo sapiens; Table 3
Experimental: as §1

[4] = system: 293T embryonic kidney cells; assay: Cytostatic assay, 293T; format: cell-based; settings: Homo sapiens, HEK-293T; Table 3
Experimental: as §1

MT-2 cells = assay: Cytostatic assay, MT-2; format: cell-based; settings: Homo sapiens, MT2; Table 2
Experimental: as §1

[5] = system: MCF-7 mammary carcinoma cells; assay: Cytostatic assay, MCF-7; format: cell-based; settings: Homo sapiens, MCF7; Table 3
Experimental: as §1

[6] = system: HT29 colorectal carcinoma cells; assay: Cytostatic assay, HT29; format: cell-based; settings: Homo sapiens, HT-29; Table 3
Experimental: as §1

[7] = system: HEL embryonic lung fibroblast cells; assay: Cytostatic assay, HEL; format: cell-based; settings: Homo sapiens, Table 3
Experimental: as §1

[8] = system: Raji, human B-lymphoma cells; assay: Cytostatic assay, Raji; format: cell-based; settings: Table 2
Experimental: as §1

[9] = system: Caki-2 kidney carcinoma cells; assay: Cytostatic assay, Caki-2; format: cell-based; settings: Homo sapiens, Table 3
Experimental: as §1

C8166 cells = assay: Cytostatic assay, C8166; format: cell-based; settings: Homo sapiens, Table 2
Experimental: as §1

[10] = system: BAEC aortic endothelial cells; assay: Cytostatic assay, BAEC; format: cell-based, bovine; settings: Bos taurus, Table 3
Experimental: as §1

[11] = system: Caki-1 kidney carcinoma cells; assay: Cytostatic assay, Caki-1; format: cell-based; settings: Homo sapiens, Table 3
Experimental: as §1

[12] = system: PC-3 (UZ) prostate cancer cells; assay: Cytostatic assay, PC-3 (UZ); format: cell-based; settings: Table 4
Experimental: as §1

[13] = system: PC3 (rega) prostate cancer cells; assay: Cytostatic assay, PC3 (rega); format: cell-based; settings: Table 4
Experimental: as §1

Molt4/C8 cells = assay: Cytostatic assay, Molt4/C8; format: cell-based; settings: Table 2
Experimental: as §1

PLC/PRF/5 hepatoma cells = assay: Cytostatic assay, PLC/PRF/5; format: cell-based; settings: Homo sapiens, Table 4
Experimental: as §1

MT-4 cells = assay: Cytostatic assay, MT-4; format: cell-based; settings: Homo sapiens, MT4; Table 2
Experimental: as §1

[14] = system: DU145 (UZ) prostate cancer cells; assay: Cytostatic assay, DU145 (UZ); format: cell-based; settings: Homo sapiens, DU-145; Table 4
Experimental: as §1

[15] = system: HeLa cervix carcinoma cells; assay: Cytostatic assay, HeLa; format: cell-based, human; settings: Homo sapiens; Table 3; read-out: Cytostatic activity (μM) Hela
Experimental: as §1

HUT-78 cells = assay: Cytostatic assay, HUT-78; format: cell-based; settings: Homo sapiens, HuT78; Table 2
Experimental: as §1

Huh-7 hepatoma cells = assay: Cytostatic assay, Huh-7; format: cell-based; settings: Homo sapiens, Table 4
Experimental: as §1

U87 glioma cells = assay: Cytostatic assay, U87; format: cell-based; settings: Homo sapiens, U-87 MG; Table 3
Experimental: as §1

[16] = system: HL60, human leukemia cells; assay: Cytostatic assay, HL-60; format: cell-based; settings: Table 2
Experimental: as §1

[17] = system: FM3A mammary carcinoma cells; assay: Cytostatic assay, FM3A; format: cell-based, murine; settings: Mus musculus, Table 3
Experimental: as §1

HepG2C3A hepatoma cells = assay: Cytostatic assay, HepG2C3A; format: cell-based; settings: Homo sapiens, HepG2/C3A; Table 4
Experimental: as §1

[18] = system: THP-1, human monocytic cells; assay: Cytostatic assay, THP-1; format: cell-based; settings: Table 2
Experimental: as §1

[19] = system: 22Rv1 (UZ) prostate cancer cells; assay: Cytostatic assay, 22Rv1 (UZ); format: cell-based; settings: Homo sapiens, Table 4
Experimental: as §1

BPH-1 (UZ) = assay: Cytostatic assay, BPH-1 (UZ); format: cell-based; settings: Homo sapiens, Table 4
Experimental: as §1

Sup T1 cells = assay: Cytostatic assay, Sup T1; format: cell-based; settings: Homo sapiens, Table 2, read-out: Cytostatic activity (μM) Sup T 1
Experimental: as §1

[20] = system: PNT1A (UZ) prostate cells; assay: Cytostatic assay, PNT1A (UZ); format: cell-based; settings: Homo sapiens, Table 4
Experimental: as §1

L1210 cells = assay: Cytostatic assay, L1210; format: cell-based; settings: Mus musculus, Table 2
Experimental: as §1

[21] = Table 1a, read-out: IC50 μM (CEM)
[22] = Table 2, read-out: Cytostatic activity (μM) CEM

IC50 [1] [µM] | IC50 (CEM cells; [21]) [µM] | IC50 (CEM cells; [22]) [µM] | IC50 [2] [µM] | IC50 [3] [µM] | IC50 (MT-2 cells) [µM] | IC50 [5] [µM] | IC50 [6] [µM] | IC50 [8] [µM] | IC50 [9] [µM] | IC50 (C8166 cells) [µM] | IC50 [10] [µM] | IC50 [11] [µM] | IC50 [12] [µM] | IC50 [13] [µM] | IC50 (Molt4/C8 cells) [µM] | IC50 (PLC/PRF/5 hepatoma cells) [µM] | SMILES | IC50 [4] [µM] | IC50 [7] [µM] | IC50 (MT-4 cells) [µM] | further results
42 ± 2.1 | 47 | 47 ± 25 | 5.3 ± 4.3 | 27 ± 18 | 6.65 ± 1.9 | 26 ± 2.1 | 66 ± 6.4 | 39 ± 21 | 78 ± 69 | ≥ 200 | 45 ± 4.9 | 1.3 ± 0.4 | 11 ± 4.2 | 3.1 ± 1.2 | 8.5 ± 3.4 | 41 ± 3.5 | N#Cc1cc(CCc2ccccc2)sc1N [TR588, 2-Amino-5-phenethyl-thiophene-3-carbonitrile] | 34 ± 14 | 30 ± 6.4 | 75 ± 35 | IC50 [14]: 24 ± 4.9 µM; IC50 [15]: 27 ± 28 µM; IC50 (HUT-78 cells): 18 ± 7.1 µM; IC50 (Huh-7 hepatoma cells): 21 ± 7.1 µM; IC50 (U87 glioma cells): 46 ± 7.8 µM; IC50 [16]: 3.9 ± 0.5 µM; IC50 [17]: 67 ± 23 µM; IC50 (HepG2C3A hepatoma cells): 64 ± 52 µM; IC50 [18]: 8.4 ± 0.28 µM; IC50 [19]: 61 ± 34 µM; IC50 (BPH-1 (UZ)): ≥ 100 µM; IC50 (Sup T1 cells): > 200 µM; IC50 [20]: 66 ± 31 µM; IC50 (L1210 cells): 40 ± 6 µM
> 200 | 63 | 63 ± 7.8 | 4.3 ± 3.2 | 135 ± 92 | 48 ± 7.1 | 72 ± 45 | > 100 | 76 ± 35 | > 200 | ≥ 200 | > 100 | 17 ± 13 | 8.6 ± 0.21 | 8.5 ± 7.8 | 21 ± 4 | > 100 | COC(=O)c1cc(CCc2ccccn2)sc1N [TR596, 2-Amino-5-(2-pyridin-2-yl-ethyl)-thiophene-3-carboxylic acid methyl ester] | > 100 | 43 ± 9.2 | > 100 | IC50 [14]: > 100 µM; IC50 [15]: 45 ± 3 µM; IC50 (HUT-78 cells): 142 ± 83 µM; IC50 (Huh-7 hepatoma cells): 46 ± 34 µM; IC50 (U87 glioma cells): > 100 µM; IC50 [16]: 73 ± 30 µM; IC50 [17]: 210 ± 17 µM; IC50 (HepG2C3A hepatoma cells): 69 ± 45 µM; IC50 [18]: 116 ± 49 µM; IC50 [19]: 77 ± 27 µM; IC50 (BPH-1 (UZ)): > 100 µM; IC50 (Sup T1 cells): 99 µM; IC50 [20]: > 100 µM; IC50 (L1210 cells): 101 ± 28 µM
73 ± 3.5 | 27 | 27 ± 10 | 11 ± 5 | 18 ± 1.4 | 27 ± 4.2 | 48 ± 11 | 43 ± 2.8 | 48 ± 13 | 17 ± 3.5 | 133 ± 7.8 | 31 ± 6.4 | 17 ± 3.5 | 28 ± 0.71 | 25 ± 6.4 | 31 ± 2.1 | 21 ± 0.71 | CCOC(=O)c1cc(-c2ccccc2OC)sc1N [TR531, 2-Amino-5-(2-methoxy-phenyl)-thiophene-3-carboxylic acid ethyl ester] | 58 ± 7.1 | 25 ± 3.5 | 44 ± 5.7 | IC50 [14]: 34 ± 4.2 µM; IC50 [15]: 40 ± 9 µM; IC50 (HUT-78 cells): 108 ± 5.7 µM; IC50 (Huh-7 hepatoma cells): 43 ± 12 µM; IC50 (U87 glioma cells): 38 ± 8.5 µM; IC50 [16]: 17 ± 5.7 µM; IC50 [17]: 49 ± 1 µM; IC50 (HepG2C3A hepatoma cells): 10 ± 5.2 µM; IC50 [18]: 25 ± 19 µM; IC50 [19]: 20 ± 5.1 µM; IC50 (BPH-1 (UZ)): 39 µM; IC50 (Sup T1 cells): 28 ± 12 µM; IC50 [20]: 45 ± 1.4 µM; IC50 (L1210 cells): 41 ± 3 µM
